The first assay has as its target b-Raf (V600E) (Homo sapiens (Human), UniProt P15056, V600E). Conditions: read-out: b-Raf IC-50; AlphaScreen, 60 min pre-incubation, 3 hours reaction. (Bead proximity is the source of the signal in Alpha formats.)
b-Raf (V600E), sequence (P15056 whole entry V600E): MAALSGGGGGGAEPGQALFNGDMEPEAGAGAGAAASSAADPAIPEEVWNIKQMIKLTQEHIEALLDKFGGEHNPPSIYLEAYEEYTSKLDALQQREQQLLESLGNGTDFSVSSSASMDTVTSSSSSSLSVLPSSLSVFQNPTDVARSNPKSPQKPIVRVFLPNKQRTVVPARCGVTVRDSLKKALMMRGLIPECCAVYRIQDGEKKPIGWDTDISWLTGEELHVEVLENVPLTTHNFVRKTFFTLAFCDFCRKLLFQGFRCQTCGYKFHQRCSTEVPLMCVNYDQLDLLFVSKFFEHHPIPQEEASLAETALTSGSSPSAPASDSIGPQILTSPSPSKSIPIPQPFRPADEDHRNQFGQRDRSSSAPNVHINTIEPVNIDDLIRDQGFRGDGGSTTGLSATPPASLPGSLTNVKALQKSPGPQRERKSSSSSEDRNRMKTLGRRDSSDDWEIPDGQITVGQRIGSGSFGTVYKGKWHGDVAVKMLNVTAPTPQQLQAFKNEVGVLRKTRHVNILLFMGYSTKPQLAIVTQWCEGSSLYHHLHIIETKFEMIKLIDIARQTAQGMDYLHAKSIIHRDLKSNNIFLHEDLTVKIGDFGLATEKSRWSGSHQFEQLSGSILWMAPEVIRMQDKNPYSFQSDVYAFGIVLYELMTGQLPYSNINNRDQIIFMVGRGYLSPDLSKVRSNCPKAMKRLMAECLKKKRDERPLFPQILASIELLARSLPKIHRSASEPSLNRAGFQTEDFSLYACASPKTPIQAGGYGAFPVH
As to `CCOc1nnc(-c2cc(NC(=O)c3ccnc(C(F)(F)CC)c3)cnc2C)cc1N1CCOCC1` [Example 617, 2-(1,1-difluoropropyl)-N-(5-(6-ethoxy-5-morpholinopyridazin-3-yl)-6-methylpyridin-3-yl)isonicotinamide], the IC50 is 3.5 nM.
Consider `CCOc1nnc(-c2cc(NC(=O)c3ccnc(C(C)(C)F)c3)cnc2C)cc1N1CCOCC1` [Example 610, N-(5-(6-ethoxy-5-morpholinopyridazin-3-yl)-6-methylpyridin-3-yl)-2-(2-fluoropropan-2-yl)isonicotinamide], for which the IC50 was determined as 4.5 nM.
The same measure, in the same setting: under `CCOc1nnc(-c2cc(NC(=O)c3ccnc(C(C)(F)F)c3)cnc2C)cc1N1CCOCC1` [Example 620, 2-(1,1-difluoroethyl)-N-(5-(6-ethoxy-5-morpholinopyridazin-3-yl)-6-methylpyridin-3-yl)isonicotinamide] stands 1.9 nM; under `Cc1ncc(NC(=O)c2cccc(C(F)(F)F)c2)cc1-c1cc(N2CCOCC2)nc(NC2CNC2)n1` [Example 787, N-(5-(2-(azetidin-3-ylamino)-6-morpholinopyrimidin-4-yl)-6-methylpyridin-3-yl)-3-(trifluoromethyl)benzamide], 5.5 nM; under `CCOc1nc(-c2cc(NC(=O)c3ccnc(C(C)(C)C#N)c3)ccc2C)cc(N2CCOCC2)n1` [Example 764, 2-(2-cyanopropan-2-yl)-N-(3-(2-ethoxy-6-morpholinopyrimidin-4-yl)-4-methylphenyl)isonicotinamide], 3.4 nM.
As to `CCOc1nnc(-c2cc(NC(=O)c3ccnc(C(C)(C)C#N)c3)ccc2C)cc1N1CCOC[C@@H]1C` [Example 572, (S)-2-(2-cyanopropan-2-yl)-N-(3-(6-ethoxy-5-(3-methylmorpholino)pyridazin-3-yl)-4-methylphenyl)isonicotinamide], the IC50 worked out at 3.8 nM.
For `CCc1cc(C(=O)Nc2ccc(C)c(-c3cc(N4CCOCC4)c(=O)n(C)n3)c2)ccn1` [Example 642, 2-ethyl-N-(4-methyl-3-(1-methyl-5-morpholino-6-oxo-1,6-dihydropyridazin-3-yl)phenyl)isonicotinamide], the IC50 turned out to be 1.4 nM.
For the molecule `CCn1c(N2CCOCC2)cc(-c2cc(NC(=O)c3ccnc(C(C)C)c3)ccc2C)cc1=O` [Example 522, N-(3-(1-ethyl-6-morpholino-2-oxo-1,2-dihydropyridin-4-yl)-4-methylphenyl)-2-isopropylisonicotinamide], the IC50 stood at 2.5 nM.
As for `Cc1ncc(NC(=O)c2ccnc(C(C)C)c2)cc1-c1ccc(C#N)c(N2CCOCC2)c1` [Example 686, N-(5-(4-cyano-3-morpholinophenyl)-6-methylpyridin-3-yl)-2-isopropylisonicotinamide], the IC50 is 1.7 nM.
On the same count and under the same terms, the same measure for `Cc1ccc(NC(=O)c2ccnc(C(C)(C)C#N)c2)cc1-c1cncc(N2CCOCC2)n1` [Example 531, 2-(2-cyanopropan-2-yl)-N-(4-methyl-3-(6-morpholinopyrazin-2-yl)phenyl)isonicotinamide]: 5 nM.
With `Cc1ncc(NC(=O)c2cccc(C(F)F)c2)cc1-c1cc(N2CCOCC2)nc(N2CC(O)C2)n1` [Example 770, 3-(difluoromethyl)-N-(5-(2-(3-hydroxyazetidin-1-yl)-6-morpholinopyrimidin-4-yl)-6-methylpyridin-3-yl)benzamide], the IC50 was 5.3 nM.
On the same count and under the same terms, the same measure for `CCOc1nnc(-c2cc(NC(=O)c3cnnc(C(F)(F)F)c3)cnc2C)cc1N1CCOCC1` [Example 614, N-(5-(6-ethoxy-5-morpholinopyridazin-3-yl)-6-methylpyridin-3-yl)-6-(trifluoromethyl)pyridazine-4-carboxamide]: 4.2 nM.

Staying with this assay, now noted: read-out: b-Raf IC-50; AlphaScreen, 60 min pre-incubation, reaction 3 hours at room temperature.
Regarding `Cc1ncc(NC(=O)c2cnnc(C(C)(C)C#N)c2)cc1-c1cnc(OCC(F)F)c(N2CCOCC2)c1` [Example 962, 6-(2-cyanopropan-2-yl)-N-(6′-(2,2-difluoroethoxy)-2-methyl-5′-morpholino-[3,3′-bipyridin]-5-yl)pyridazine-4-carboxamide], the IC50 worked out at 15.4 nM.
Still for that read-out and setting: the same measure for `Cc1ncc(NC(=O)c2cccc(C(F)(F)F)c2)cc1-c1cnc(OC2CCS(=O)(=O)CC2)c(N2CCOCC2)c1` [Example 1034, N-(6′-((1,1-dioxidotetrahydro-2H-thiopyran-4-yl)oxy)-2-methyl-5′-morpholino-[3,3′-bipyridin]-5-yl)-3-(trifluoromethyl)benzamide]: 1.59 nM; for `Cc1ncc(NC(=O)c2cccc(C(O)C(F)(F)F)c2)cc1-c1cnc(OC2CCOCC2)c(N2CCOCC2)c1` (centres unmarked) [Example 977, N-(2-methyl-5′-morpholino-6′-((tetrahydro-2H-pyran-4-yl)oxy)[3,3′-bipyridin]-5-yl)-3-(2,2,2-trifluoro-1-hydroxyethyl)benzamide]: 4.21 nM; for `COc1nnc(-c2cc(C(=O)Nc3ccnc(C(C)(F)F)c3)ccc2C)cc1N1CCOCC1` [Example 1019, N-(2-(1,1-difluoroethyl)pyridin-4-yl)-3-(6-methoxy-5-morpholinopyridazin-3-yl)-4-methylbenzamide]: 1.11 nM.
On the same count and under the same terms, under `Cc1ccc(NC(=O)c2ccnc(C(F)(F)F)c2)cc1-c1cc(N2CCNCC2)nc(N2CCOCC2)c1` [Example 1128, N-(4-methyl-3-(2-morpholino-6-(piperazin-1-yl)pyridin-4-yl)phenyl)-2-(trifluoromethyl)isonicotinamide] stands 2.16 nM; under `Cc1ccc(NC(=O)c2cccc(-c3nnco3)c2)cc1-c1cc(N2CCOCC2)nc(N2CC(O)C2)c1` [Example 1100, N-(3-(2-(3-hydroxyazetidin-1-yl)-6-morpholinopyridin-4-yl)-4-methylphenyl)-3-(1,3,4-oxadiazol-2-yl)benzamide], 3.89 nM.
Regarding `Cc1ccc(NC(=O)c2cnnc(C(F)(F)F)c2)cc1-c1cc(OC2CCOCC2)nc(N2CCOCC2)c1` [Example 1155, N-(4-methyl-3-(2-morpholino-6-((tetrahydro-2H-pyran-4-yl)oxy)pyridin-4-yl)phenyl)-6-(trifluoromethyl)pyridazine-4-carboxamide], the IC50 stood at 0.66 nM.
Consider `Cc1ccc(NC(=O)c2ccnc(C(C)(C)C#N)c2)cc1-c1cnc(OCCO)c(N2CCOCC2)c1` [Example 998, 2-(2-cyanopropan-2-yl)-N-(3-(6-(2-hydroxyethoxy)-5-morpholinopyridin-3-yl)-4-methylphenyl)isonicotinamide], for which the IC50 worked out at 3 nM.

Still in this assay, the particulars now being: read-out: b-Raf IC-50; Table 2; AlphaScreen, 3 hours reaction.
In the case of `Cc1ncc(NC(=O)c2cccc(C(F)(F)F)c2)cc1-c1cnc(C(C)(C)C#N)c(N2CCOCC2)c1` [Example 326, N-(6′-(2-cyanopropan-2-yl)-2-methyl-5′-morpholino-[3,3′-bipyridin]-5-yl)-3-(trifluoromethyl)benzamide], the IC50 was 3.7 nM.
On to `COc1ncc(-c2cc(NC(=O)c3ccnc(C(C)(C)F)c3)cnc2Cl)cc1N1CCOCC1` [Example 262, N-(2-chloro-6′-methoxy-5′-morpholino-[3,3′-bipyridin]-5-yl)-2-(2-fluoropropan-2-yl)isonicotinamide], for which the IC50 was 3.4 nM.
The same measure, in the same setting: under `CC(F)(F)c1cc(C(=O)Nc2c[nH]c(=O)c(-c3ccnc(N4CCOCC4)c3)c2)ccn1` [Example 89, 2-(1,1-difluoroethyl)-N-(2′-morpholino-2-oxo-1,2-dihydro-[3,4′-bipyridin]-5-yl)isonicotinamide] stands 25000 nM; under `CCOc1ncc(-c2cc(NC(=O)c3ccnc(C(C)(C)F)c3)cnc2C)cc1N1CCOCC1` [Example 253, N-(6′-ethoxy-2-methyl-5′-morpholino-[3,3′-bipyridin]-5-yl)-2-(2-fluoropropan-2-yl)isonicotinamide], 2.6 nM; under `Cc1ncc(NC(=O)c2ccnc(C(C)(C)C#N)c2)cc1-c1cc(N2CCOCC2)c(=O)n(C)c1` [Example 141, 2-(2-cyanopropan-2-yl)-N-(1′,2-dimethyl-5′-morpholino-6′-oxo-1′,6′-dihydro-[3,3′-bipyridin]-5-yl)isonicotinamide], 47.5 nM.
Still for that read-out and setting: the same measure for `COc1ccc(C(=O)Nc2ccc(C)c(-c3cc(N4CCOCC4)c(=O)n(C)c3)c2)cc1C(F)(F)F` [Example 339, 4-methoxy-N-(4-methyl-3-(1-methyl-5-morpholino-6-oxo-1,6-dihydropyridin-3-yl)phenyl)-3-(trifluoromethyl)benzamide]: 1.8 nM.
On the same count and under the same terms, under `CCOc1ncc(-c2cc(NC(=O)c3ccnc(S(C)(=O)=O)c3)cnc2C)cc1N1CCOCC1` [Example 243, N-(6′-ethoxy-2-methyl-5′-morpholino-[3,3′-bipyridin]-5-yl)-2-(methylsulfonyl)isonicotinamide] stands 5.3 nM; under `Cc1ccc(NC(=O)c2cccc(C(F)(F)F)c2)cc1-c1cc(N2CCOCC2)nc(NCCO)n1` [Example 31, N-(3-(2-((2-hydroxyethyl)amino)-6-morpholinopyrimidin-4-yl)-4-methylphenyl)-3-(trifluoromethyl)benzamide], 0.7 nM.
With `Cc1ccc(NC(=O)c2ccnc(C(C)(C)C#N)c2)cc1-c1cc(N2CCOCC2)c(=O)n(CC2(C)COC2)c1` [Example 338, 2-(2-cyanopropan-2-yl)-N-(4-methyl-3-(1-((3-methyloxetan-3-yl)methyl)-5-morpholino-6-oxo-1,6-dihydropyridin-3-yl)phenyl)isonicotinamide], the IC50 worked out at 9000 nM.
Still for that read-out and setting: under `COc1ncc(-c2cc(NC(=O)c3ccnc(C(F)(F)F)c3)cnc2C)cc1N1CCOCC1` [Example 324, N-(6′-methoxy-2-methyl-5′-morpholino-[3,3′-bipyridin]-5-yl)-2-(trifluoromethyl)isonicotinamide] stands 7.4 nM; under `Cc1ccc(NC(=O)c2ccnc(S(C)(=O)=O)c2)cc1-c1ccnc(N2CCOCC2)c1` [Example 73, N-(4-methyl-3-(2-morpholinopyridin-4-yl)phenyl)-2-(methylsulfonyl)isonicotinamide], 1.9 nM.
Still for that read-out and setting: under `Cc1ncc(NC(=O)c2cccc(C(F)(F)F)c2)cc1-c1cnc(OC(C)C)c(N2CCOCC2)c1` [Example 134, N-(6′-isopropoxy-2-methyl-5′-morpholino-[3,3′-bipyridin]-5-yl)-3-(trifluoromethyl)benzamide] stands 2.4 nM.

For the origin of these results see patent publication US9694016B2 (Novartis AG, priority 2013, dated 2017).
